Data taken from patent publication EP1372636B1, “METRONOMIC DOSING OF TAXANES FOR INHIBITING TUMOR GROWTH” (Bristol-Myers Squibb Company, priority 2001, dated 2002).
Where two headings read alike, the source gives them in different places.

Key:
[1] = test system: human umbilical vein endothelial cell (HUVEC); experiment: HUVEC proliferation (3H-thymidine incorporation); format: cell-based; conditions: for IC50: Homo sapiens, HUVEC, read-out: IC50 in Cells HUVEC
Experimental: (§4) Primary human umbilical vein endothelial cells (HUVEC) were purchased from CLONETICS Inc. (San Diego, CA) and used at passage 2 to 3. Proliferation was measured using ^3H-thymidine incorporation in cells by pulsing twenty-four hours prior to harvesting cell cultures. The human breast carcinoma line H3396 was used to assess activity of compound on tumor cells. Cells (2 x 10^3) were plated on collagen IV coated 96 well plates. Twenty-four hours later, compounds were added at varying concentrations. After 48 hours, ^3H-thymidine was added and cells were allowed to incorporate this label over a twenty-four hour period. Cellular extracts were harvested onto glass filters and incorporated radioactivity was determined by counting in a Beta scintillation counter. The IC50, defined as the drug concentration that causes 50% inhibition of ^3H-thymidine incorporation, was extrapolated from the plotted data.

[2] = test system: human breast carcinoma line H3396; experiment: H3396 tumor cell proliferation (3H-thymidine incorporation); format: cell-based
Experimental: as §4

[3] = test system: mammary 16/C murine carcinoma; experiment: Staged subcutaneous mammary 16/C carcinoma in mice, gross log cell kill; format: in vivo, C3H mice
From the text: The final concentrations of each component of the vehicle was as follows: CREMOPHOR 10%; ethanol 10%; aqueous 80%.
C3H conventional mice were purchased from Harlan-Sprague Dawley (Indianapolis, IN) and fed mouse chow and water ad libitum.
The metastatic mammary 16/C murine carcinoma was propagated biweekly in C3H mice. Experiments were initiated by subcutaneous insertion by trocar of tumor fragments.
For in vivo tumor testing, the C3H mice were implanted subcutaneously with mammary 16/C tumor fragments. All treatments were initiated on Day 10 post-tumor implant, except for an untreated control group. All groups contained 8 mice. Tumors were measured once or twice weekly and dimensions were converted to weights using the formula Weight (milligrams)= a x b^2, where a=length and b=width (in millimeters). The median time for tumors within each group of mice to reach 1 gram was determined and the delays in median time to reach 1 gram tumor target size for treated (T) versus control (C) groups was calculated. These delays in tumor growth (T-C value in days) were further converted to gross log cell kill (LCK) values using the formula T-C/(tumor volume doubling time, TVDT, of the control group) x (3.32). A LCK of greater than or equal to 1 LCK was considered an active result. Cures were assessed at the end of each experiment and defined in the absence of a tumor mass of greater than 35 milligrams. Experiments were terminated more than 10 x TVDT following the completion of all treatments.

[4] = test system: endothelial cells occurring in MATRIGEL plugs; experiment: In vivo […] plug angiogenesis model (number of endothelial cells in plugs); design: species or system athymic (nu/nu) Balb/c mice; conditions: q2dx5; for reduction of cell number in plugs: oral gavage
Experimental: (§1) LX1 human lung tumor fragments that were maintained by serial subcutaneous passage in athymic (nu/nu) Balb/c mice were implanted subcutaneously as small fragments approximately 0.1 mm^3 in size. Tumor volume doubling time for this tumor in these studies was 2.8 days. When tumors reached the size range of 150-200 mm^3, liquid […] was injected subcutaneously on the side contralateral to the tumor. Treatment was initiated 24 hours later at varying doses and schedules. Prior to implanting, […] is prepared by placing solidified […] on ice overnight at 4 C in accordance with the method described by Passiniti et al. (Lab. Invest. 1992 67:519-28). At the liquid phase and while on ice, VEGF and bFGF (Peprotech, Inc. Rocky Hill, NJ) is added to the […] at final respective concentrations of 75 ng/ml and 300 ng/ml. Stock solutions of these growth factors are made fresh at […] in PBS. Twenty-four hours following final treatment, animals were sacrificed by cervical dislocation and […] plugs from treated and control animals were excised and fixed for at least 48 hours in 10% neutral buffered formalin. These plugs were then processed for paraffin embedding and sectioned at 5 µm thickness followed by staining with hematoxylin and eosin prior to quantitative analysis. The number of endothelial cells in plugs was quantitated using the IMAGEPRO PLUS software (Media Cybernetics, Inc., Silver Spring, MD) at a magnification of 20x. Fifty fields of view from each plug were used for counting the number of endothelial cells. The number of cells were summarized and compared statistically to controls.
(§2) Angiogenesis is evaluated in these plugs as the number of endothelial cells migrating into plugs from compound treated groups relative to the vehicle treated group. Tumors were implanted for the purpose of monitoring the anti-tumor effects of these compounds throughout these studies in order to assure compound efficacy at the therapeutic doses.
(§3) For TAXOL, normal saline was used as the diluent and delivery was made intravenously. For the oral taxane of Formula I, sterilized water was used as the diluent and delivery was by oral gavage.

[5] = as above; design: species or system athymic (nu/nu) Balb/c mice; conditions: mouse, in vivo, read-out: maximum tolerated dose (MTD)
Experimental: as §1, §2, §3

[6] = test system: HUVEC; experiment: In vitro HUVEC tube formation on […]; format: cell-based, human; design: key: C= complete; P= partial
Experimental: Angiogenesis results in a network of functional blood vessels that contain red blood cells. In vitro assays that, in part, mimic that process have been established. Primary endothelial cells such as HUVEC when placed on […] (Collaborative Research, Inc.) form a three-dimensional network of tubes that align into cords. In this assay system, tube formation was evaluated on an extracellular protein matrix consisting of […] diluted 1:1 with culture media (EBM-2; CLONETICS, Inc.) and allowed to polymerize for 60 minutes at 37 C. […] Eighteen hours following the plating of cells, the media was removed and cultures were fixed in formalin. Inhibition of tubes on […] is evaluated on an inverted microscope using phase contrast lighting. To determine the effect of compounds in this assay, a descriptive approach was developed. […] Partial inhibition is defined as an incomplete network with a large number of single cells. Complete inhibition is defined as greater than 99% of cells occurring as single cells with no elongated or branching structures. The number of single cells occurring after vehicle treatment (control) is subtracted from the total number of single cells occurring in the treated groups prior to assessing the effects of test compounds for establishing background effects.

[7] = Oral bioavailability in the dog; format: in vivo
[8] = Oral bioavailability in the rat; format: in vivo
[9] = test system: L2987 human lung tumor
From the text: L2987 human lung tumors were implanted and allowed to reach 50 to 100 mm^3 before drug administration.

Compound: CC(=O)O[C@H]1C(=O)[C@@]2(C)[C@H]([C@H](OC(=O)c3ccccc3)[C@]3(O)C[C@H](OC(=O)[C@H](O)[C@@H](NC(=O)c4ccccc4)c4ccccc4)C(C)=C1C3(C)C)[C@]1(OC(C)=O)CO[C@@H]1C[C@@H]2O [TAXOL, paclitaxel]
- IC50 ([1]; 3H-thymidine incorporation, two separate experiments (two columns)): 3 nM
- H3396/HUVEC ([1]; ratio of IC50 in H3396 to IC50 in HUVEC): 0.88
- IC50 ([2]; H3396, 3H-thymidine incorporation, two separate experiments (two columns), read-out: IC50 in Cells H3396): 3 nM
- Gross LCK ([3]; Paclitaxel 20 mg/kg/inj qd 10-14 iv, no Formula I, Paclitaxel 20 mg/kg/inj qd 32-36 iv): 4.5
- Gross LCK ([3]; Paclitaxel 20 mg/kg/inj qd 10-14 iv, no Formula I, Paclitaxel 30 mg/kg/inj qd 32-36 iv): 4.7
- Gross LCK ([3]; Paclitaxel 30 mg/kg/inj qd 10-14 iv alone (single course)): 1.9
- cures/total ([3]; Paclitaxel 30 mg/kg/inj qd 10-14 iv alone, Cures assessed on Day 60): 2/8
- Gross LCK ([3]; Paclitaxel 45 mg/kg/inj qd 10-14 iv alone (single course)): 1.9
- cures/total ([3]; Paclitaxel 45 mg/kg/inj qd 10-14 iv alone, Cures assessed on Day 60 post tumor implant): 1/8
- cures/total ([3]; Paclitaxel 20 qd 10-14 iv, no Formula I, Paclitaxel 30 qd 32-36 iv, Cures assessed on Day 88): 1/8
- cures/total ([3]; Paclitaxel 30 qd 10-14 iv, no Formula I, Paclitaxel 30 qd 32-36 iv, Cures assessed on Day 88 post-tumor implant, listed as Paclitaxel): 2/8
- cures/total ([3]; Paclitaxel 30 qd 10-14 iv, no Formula I, Paclitaxel 30 qd 32-36 iv, Cures assessed on Day 88 post-tumor implant, listed as paclitaxel): 2 of 8
- MTD regimen ([3]; qdx5, iv, beginning on Day 10 post-tumor implant): 45 mg/kg/injection
- reduction in cell number in MATRIGEL plugs compared to control groups ([4]; 24 mg/kg (MTD), intravenously): greater than 50%
- MTD ([5]; athymic (nu/nu) Balb/c, intravenous): 24 mg/kg
- Inhibition of HUVEC Tube Formation on MATRIGEL ([6]; 0.0005µM): P
- Inhibition of HUVEC Tube Formation on MATRIGEL ([6]; 0.0050µM): P
- Inhibition of HUVEC Tube Formation on MATRIGEL ([6]; 0.0500µM): C
- Inhibition of HUVEC Tube Formation on MATRIGEL ([6]; 0.5000µM): C
- Inhibition of HUVEC Tube Formation on MATRIGEL ([6]; 5.000µM): C

Compound: COC(=O)O[C@@]12CO[C@@H]1C[C@H](O)[C@@]1(C)C(=O)[C@H](OC(C)=O)C3=C(C)[C@@H](OC(=O)[C@H](O)[C@@H](NC(=O)OC(C)(C)C)C(C)(C)C)C[C@@](O)([C@@H](OC(=O)c4ccccc4)[C@H]21)C3(C)C [Formula I, 3'-tert-Butyl-3'-N-tert-butyloxycarbonyl-4-deacetyl-3'-dephenyl-3'-N-debenzoyl-4-O-methoxycarbonyl-paclitaxel]
- IC50 [1]: 2 nM
- oral bioavailability [7]: good
- oral bioavailability [8]: good
- IC50 ([2]; H3396, read-out: IC50 in Cells H3396, 3H-thymidine incorporation, two separate experiments (two columns)): 2 nM
- weight loss ([9]; 20 mg/kg orally, metronomic schedule q2dx15): no weight loss was observed
- tumor growth ([9]; 20 mg/kg orally, metronomic schedule q2dx15 (cumulative 300 mg/kg)): suppressed tumor growth
- weight loss ([9]; 60 mg/kg orally, standard schedule q2dx5): weight loss was also observed
- anti-tumor response ([9]; 60 mg/kg orally, standard schedule q2dx5 (cumulative 300 mg/kg), compared with metronomic regime): greater anti-tumor response
- reduction of cell number in plugs ([4]; 18 mg/kg): greater than 50%
- reduction of cell number in plugs ([4]; 36 mg/kg): greater than 50%
- reduction of cell number in plugs ([4]; 60 mg/kg (MTD)): greater than 50%
- MTD ([5]; po): 60 mg/kg
- Inhibition of HUVEC Tube Formation on MATRIGEL ([6]; 0.0005µM): P
- Inhibition of HUVEC Tube Formation on MATRIGEL ([6]; 0.0050µM): P
- Inhibition of HUVEC Tube Formation on MATRIGEL ([6]; 0.0500µM): C
- Inhibition of HUVEC Tube Formation on MATRIGEL ([6]; 0.5000µM): C
- Inhibition of HUVEC Tube Formation on MATRIGEL ([6]; 5.000µM): C
